Results: US9302999B2, “Substituted triazoles as herbicides” (E. I. DU PONT DE NEMOURS AND COMPANY, priority 2012, dated 2016)

What was measured:
Type in all cases: in vivo
[1] = tested on: crabgrass, large (large crabgrass, Digitaria sanguinalis); experiment: Test A pre-/postemergence: crabgrass, large
How it was run: (§1)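 Injury was scored visually on a 0 (no effect) to 100 (complete control) scale versus untreated controls roughly ten days after treatment in the greenhouse. Compounds, formulated in surfactant-containing non-phytotoxic solvent, went on as soil-directed preemergence spray or postemergence to one- to two-leaf plants 2–10 cm tall.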

[2] = tested on: ryegrass, Italian (Italian ryegrass, Lolium multiflorum); experiment: Test C pre-/postemergence: ryegrass, Italian
How it was run: (§2)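 Visual injury scored 0–100 (100 = complete control) against untreated controls after 13–15 greenhouse days. Surfactant-containing solvent formulations applied either to soil after sowing (loam/sand) or over 1- to 4-leaf plants, 2–18 cm tall.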

[3] = tested on: foxtail, giant (giant foxtail, Setaria faberii); experiment: Test A pre-/postemergence: foxtail, giant
How it was run: as §1

corn (Zea mays) = experiment: Test A pre-/postemergence: corn
How it was run: as §1

[4] = tested on: lambsquarters (Chenopodium album); experiment: Test C pre-/postemergence: lambsquarters
How it was run: as §2

[5] = tested on: johnsongrass (Sorghum halepense); experiment: Test C pre-/postemergence: johnsongrass
How it was run: as §2

[6] = tested on: velvetleaf (Abutilon theophrasti); experiment: Test C pre-/postemergence: velvetleaf
How it was run: as §2

[7] = tested on: wheat (Triticum aestivum); experiment: Test A pre-/postemergence: wheat
How it was run: as §1

[8] = tested on: sedge, umbrella (small-flower umbrella sedge Cyperus difformis); experiment: Test B flooded paddy: sedge, umbrella; conditions: Flood, applied to paddy water at 2-leaf stage, visually evaluated after 13 to 15 days
How it was run: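 2-leaf plants; pots flooded 3 cm over soil; compound added to paddy water, depth kept constant. Greenhouse 13–15 d. Visual rating vs controls, 0–100 scale (100 = complete control); dash = no result.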

[9] = Postemergence, 125 g ai/ha, 0 to 100 scale, 0 is no effect, 100 is complete control
[10] = Postemergence, 500 g ai/ha, 0 to 100 scale, 0 is no effect, 100 is complete control
[11] = Preemergence, 125 g ai/ha, 0 to 100 scale where 0 is no effect and 100 is complete control
[12] = Preemergence, 500 g ai/ha, 0 to 100 scale (0 no effect, 100 complete control)
[13] = Postemergence, 31 g ai/ha, scale 0 to 100 (0 no effect, 100 complete control)
[14] = Postemergence, 62 g ai/ha, scale 0 to 100 (0 no effect, 100 complete control)
[15] = Postemergence, 125 g ai/ha, scale 0 to 100, 0 no effect, 100 complete control
[16] = Postemergence, 250 g ai/ha, scale 0 to 100 (0 no effect, 100 complete control)
[17] = Preemergence, 31 g ai/ha, scale 0 (no effect) to 100 (complete control)
[18] = Preemergence, 62 g ai/ha, scale of 0 to 100, 0 is no effect, 100 is complete control
[19] = Preemergence, 125 g ai/ha, scale 0 to 100, 0 no effect, 100 complete control
[20] = Preemergence, 250 g ai/ha, scale 0 to 100, 0 no effect, 100 complete control
[21] = Postemergence, 500 g ai/ha, visual rating on 0 to 100 scale (0 no effect, 100 complete control), approximately ten days
[22] = Postemergence, 250 g ai/ha, scale 0 to 100
[23] = Preemergence, 31 g ai/ha, scale of 0 to 100, 0 is no effect, 100 is complete control

CCOc1nn(-c2ccc(Cl)cc2)nc1Cc1ccnc(C(F)(F)F)c1 [Compound 188]
Plant response rating, Crabgrass, Large [1, 9]: 90
Crabgrass, Large plant response rating [1, 10]: 90
Plant response rating, Crabgrass, Large [1, 11]: 100
Plant response rating, Crabgrass, Large [1, 12]: 100
Plant response rating, Ryegrass, Italian [2, 13]: 50
Plant response rating, Ryegrass, Italian [2, 14]: 70
Plant response rating, Ryegrass, Italian [2, 15]: 85
Plant response rating, Ryegrass, Italian [2, 16]: 90
Plant response rating, Ryegrass, Italian [2, 17]: 60
Plant response rating, Ryegrass, Italian [2, 18]: 65
Plant response rating, Ryegrass, Italian [2, 19]: 95
Plant response rating, Ryegrass, Italian [2, 20]: 98
Plant response rating, Foxtail, Giant [3, 9]: 90
Foxtail, Giant plant response rating [3, 10]: 90
Plant response rating, Foxtail, Giant [3, 11]: 100
Plant response rating, Foxtail, Giant [3, 12]: 100
Plant response rating, Corn (corn (Zea mays); [9]): 40
Corn plant response rating (corn (Zea mays); [10]): 50
Plant response rating, Corn (corn (Zea mays); [11]): 10
Plant response rating, Corn (corn (Zea mays); [12]): 20
Plant response rating, Lambsquarters [4, 13]: 90
Plant response rating, Lambsquarters [4, 14]: 95
Plant response rating, Lambsquarters [4, 15]: 98
Plant response rating, Lambsquarters [4, 16]: 98
Plant response rating, Lambsquarters [4, 17]: 90
Plant response rating, Lambsquarters [4, 18]: 90
Plant response rating, Lambsquarters [4, 19]: 98
Plant response rating, Lambsquarters [4, 20]: 100
Plant response rating, Johnsongrass [5, 13]: 45
Plant response rating, Johnsongrass [5, 14]: 75
Plant response rating, Johnsongrass [5, 15]: 95
Plant response rating, Johnsongrass [5, 16]: 98
Plant response rating, Johnsongrass [5, 17]: 55
Plant response rating, Johnsongrass [5, 18]: 85
Plant response rating, Johnsongrass [5, 19]: 95
Plant response rating, Johnsongrass [5, 20]: 98
Plant response rating, Velvetleaf [6, 13]: 50
Plant response rating, Velvetleaf [6, 14]: 65
Plant response rating, Velvetleaf [6, 15]: 70
Plant response rating, Velvetleaf [6, 16]: 70
Plant response rating, Velvetleaf [6, 17]: 45
Plant response rating, Velvetleaf [6, 18]: 65
Plant response rating, Velvetleaf [6, 19]: 85
Plant response rating, Velvetleaf [6, 20]: 90
Plant response rating, Wheat [7, 9]: 70
Wheat plant response rating [7, 10]: 70
Plant response rating, Wheat [7, 11]: 30
Plant response rating, Wheat [7, 12]: 50
Plant response rating, Sedge, Umbrella (0 to 100 scale, 0 is no effect, 100 is complete control) ([8]; 125 g ai/ha): 100

Cc1nn(-c2ccc(F)c(C(F)(F)F)c2)nc1Cc1ccnc(C(F)(F)F)c1 [Compound 156]
Plant response rating, Crabgrass, Large [1, 9]: 100
Crabgrass, Large plant response rating [1, 21]: 100
Plant response rating, Crabgrass, Large [1, 11]: 100
Plant response rating, Crabgrass, Large [1, 12]: 100
Plant response rating, Ryegrass, Italian [2, 13]: 15
Plant response rating, Ryegrass, Italian [2, 14]: 35
Plant response rating, Ryegrass, Italian [2, 15]: 35
Plant response rating, Ryegrass, Italian [2, 22]: 70
Plant response rating, Ryegrass, Italian [2, 23]: 45
Plant response rating, Ryegrass, Italian [2, 18]: 80
Plant response rating, Ryegrass, Italian [2, 19]: 90
Plant response rating, Ryegrass, Italian [2, 20]: 90
Plant response rating, Foxtail, Giant [3, 9]: 90
Foxtail, Giant plant response rating [3, 21]: 100
Plant response rating, Foxtail, Giant [3, 11]: 100
Plant response rating, Foxtail, Giant [3, 12]: 100
Plant response rating, Corn (corn (Zea mays); [9]): 40
Corn plant response rating (corn (Zea mays); [21]): 70
Plant response rating, Corn (corn (Zea mays); [11]): 40
Plant response rating, Corn (corn (Zea mays); [12]): 70
Plant response rating, Lambsquarters [4, 13]: 98
Plant response rating, Lambsquarters [4, 14]: 98
Plant response rating, Lambsquarters [4, 15]: 98
Plant response rating, Lambsquarters [4, 22]: 98
Plant response rating, Lambsquarters [4, 23]: 100
Plant response rating, Lambsquarters [4, 18]: 100
Plant response rating, Lambsquarters [4, 19]: 100
Plant response rating, Lambsquarters [4, 20]: 100
Plant response rating, Johnsongrass [5, 13]: 45
Plant response rating, Johnsongrass [5, 14]: 50
Plant response rating, Johnsongrass [5, 15]: 65
Plant response rating, Johnsongrass [5, 22]: 85
Plant response rating, Johnsongrass [5, 23]: 75
Plant response rating, Johnsongrass [5, 18]: 90
Plant response rating, Johnsongrass [5, 19]: 90
Plant response rating, Johnsongrass [5, 20]: 95
Plant response rating, Velvetleaf [6, 13]: 45
Plant response rating, Velvetleaf [6, 14]: 50
Plant response rating, Velvetleaf [6, 15]: 60
Plant response rating, Velvetleaf [6, 22]: 80
Plant response rating, Velvetleaf [6, 23]: 5
Plant response rating, Velvetleaf [6, 18]: 40
Plant response rating, Velvetleaf [6, 19]: 40
Plant response rating, Velvetleaf [6, 20]: 100
Plant response rating, Wheat [7, 9]: 40
Wheat plant response rating [7, 21]: 60
Plant response rating, Wheat [7, 11]: 20
Plant response rating, Wheat [7, 12]: 80
Plant response rating, Sedge, Umbrella (0 to 100 scale, 0 is no effect, 100 is complete control) ([8]; 250 g ai/ha): 85
